Results on one substance are retold here after paper PMC8140105 (Scientific Reports, 2021).

Series [1] is described as follows: Ex vivo metabolization in serum, tissue and faeces homogenates. The class given is in vitro ADME, ICR-CD-1 mice. The conditions noted are these: UPLC-UV/MS; for T1/2 / Metabolites: 37 °C; for T1/2: first order kinetics. As to the method:
Peptide solution (0.1 mg/mL) was incubated with serum, brain, liver, kidney, colon or faeces homogenate at 37 °C. After 0, 5, 10, 30 and 60 min, aliquots were taken for UPLC-UV/MS analysis. Preparation of the tissue homogenates and UPLC-UV/MS parameters are given in supplementary information (Supplementary methods S3-S4). The half-live was calculated using the following equation:4 T1/2=-ln(2)/Slope where the slope is defined by linear regression assuming first order kinetics.
Supplementary method S3: Tissue homogenate preparation
Preparation of Krebs-Henseleit buffer (pH 7.4) (KH-buffer)
The powdered medium was dissolved in 900 mL water while stirring. To this solution, 0.3790 g CaCl2×2H2O and 2.098 g NaHCO3 was subsequently added while stirring. NaOH or HCl was used to adjust to pH 7.4. This solution was then further diluted to 1000 mL using ultrapure […]
Preparation of tissue homogenates
- The liver (n = 1), kidneys (n = 6), brains (n = 3), colons (n = 4) and faeces (0.196 g) of ICR-CD-1 mice were collected.
- After cleaning and rinsing the tissues using ice-cold KH buffer, the tissues were cut in little pieces and transferred into a 50 mL tube to which 36 mL ice-cold KH buffer was added.
- The tissues were then homogenized with at tissue homogenizer.
- After the larger particles were allowed to settle for about 30 minutes at 5°C, approximately 25 mL of the middle layer was transferred into a 50 mL Falcon tube using a plastic pipette.
- After shaking the homogenates, the homogenates were dispensed into 2 mL Eppendorf tubes, and stored at -35°C until use.
- The protein content of the homogenates were determined using the Pierce Modified Lowry […]
- Just before use, the homogenates were diluted to a protein concentration of 0.6 mg/mL (i.e.
300 µg / 500 µL) with KH buffer.
- Into a 1.5 ml Protein LoBind tube, 900 µl of serum/tissue extract (500 µl of homogenate/serum and 400 µl of KH buffer, pH 7.4) was transferred.
- After temperature-equilibration at 37°C for 15 min while shaking at 750 rpm, 100 µl of peptide solution (0.1 mg/mL) was added followed by continued incubation at 37°C (while shaking), with […] aliquots taken after 0, 5, 10, 30 and 60 minutes.
- The aliquots were immediately transferred into 500 µl Protein LoBind Eppendorf tubes containing 100 µl of 1% V/V trifluoroacetic acid solution in water, heated for 5 minutes at 95°C, and cooled for 30 minutes in an ice-bath.
- The samples were then centrifuged at 16,000 g for 5 minutes at 5°C.
- The supernatants was then analyzed by UPLC-UV/MS.
Supplementary method S4: UPLC-UV/MS parameters ex vivo metabolization
The analytical parameters of the UPLC-UV/MS method for the ex vivo metabolization are given […]
Table 3: Analytical parameters of UPLC method […]
Needle wash H2O/ACN/DMSO (45/45/10), post injection (6 s)
Seal wash Methanol/H2O (10/90)

The test system of the next series is SH-SY5Y neuroblast cells. Nature of the series: MTT assay on SH-SY5Y neuroblast cells. The class given is cell-based. The conditions noted are these: n = 6. As for the experimental part:
SH-SY5Y neuroblast cells (Sigma-Aldrich, Diegem, Belgium) were grown in F12:MEM (50/50 v/v) medium supplemented with 15% FBS, 1% non-essential amino acids (NEAA), 2 mM L-Glutamine and 1% penicillin/streptomycin solution (Life Technologies, Belgium) in an incubator set at 37 °C and 5% CO2. When confluent, cells were detached using 0.25% Trypsin–EDTA.
SH-SY5Y cells were seeded at a density of 5 × 10^4 cells/well in a 96-well plate and incubated for 24 h. Next, medium was removed and replaced by 200 µL conditioned medium of BV-2 cells which were treated for 20 h with PapRIV. After 24 h incubation, 20 µL MTT reagent (12 mM) was added and incubated for 3 h. Finally, the medium was removed and replaced by 150 µL DMSO and measured at 570 nm with a microplate reader (Thermofisher, Waltham, USA).
Background: Formazan colour is commonly taken as a measure of viable cells.

A further series in a line: Capillary depletion. The format is in vivo, ICR-CD-1 mice. As to conditions: 125I-labelled, i.v., mice, 10 min after injection, n = 2. As to the method: Briefly, 0.1 µmol of the lyophilized peptide was dissolved in 100 µL of phosphate buffer (pH 7.4, 25 mM). A Iodo-Gen coated tube (Thermo Scientific, Merelbeke, Belgium) was first of all rinsed with 1 mL of phosphate buffer. Subsequently, 50 µL of sodium iodide solution (1.1 µmol/mL) and 1 mCi of Na^125I solution (Perking Elmer, Zaventem, Belgium) were transferred into this Iodo-Gen coated tube. The oxidation reaction was allowed to proceed for six minutes at room temperature, after which the iodonium solution was transferred to 50 µL of peptide solution (1 mM). The iodination reaction of the peptide was allowed to proceed for another six minutes at room temperature. Finally, the iodinated peptide was purified using a silver filter (Thermo Scientific, Merelbeke, Belgium).
We performed capillary depletion to determine whether the peptides, taken up by the brain, completely crossed the capillary wall into the tissue rather than just being trapped by and in the endothelium. […] Subsequently, the brain was collected, weighed and the radioactivity measured in the gamma counter for 5 min. […] The resulting solution was weighed and centrifuged in a swinging bucket rotor at 5400g for 30 min at 4 °C, after measuring the radioactivity in the gamma counter. Pellet (capillaries) and supernatant (parenchyma and fat tissues) were also collected, weighed and measured in a gamma counter. […]

“And” between values parts separate entries of the source, which are not always exact repeats. Equal values may be shown once.

On to “SDLPFEH [PapRIV, heptapeptide (SDLPFEH) quorum sensing peptide originating from the Bacillus cereus group; synthetic, purchased from GL Biochem]”, for which the T1/2 in series [1] (mouse brain homogenate 0.6 mg/mL protein in KH buffer pH 7.4, peptide solution 0.1 mg/mL added, 0–60 min) is 522.9 min; in series [1] (mouse faeces homogenate 0.6 mg/mL protein in KH buffer pH 7.4, peptide solution 0.1 mg/mL added, 0–60 min), 89.7 min; in series [1] (mouse kidney homogenate 0.6 mg/mL protein in KH buffer pH 7.4, peptide solution 0.1 mg/mL added, 0–60 min), 20 min and 19.8 min; in series [1] (mouse liver homogenate 0.6 mg/mL protein in KH buffer pH 7.4, peptide solution 0.1 mg/mL added, 0–60 min) it was 285.7 min; in series [1] (serum (500 µl + 400 µl KH buffer pH 7.4 + 100 µl peptide solution 0.1 mg/mL), shaking 750 rpm, aliquots 0, 5, 10, 30, 60 min), 25 min and 24.8 min. Moreover, the Metabolites entry in series [1] (mouse brain homogenate, 0–60 min) was “DLPFEH, LPFEH”; in series [1] (mouse faeces homogenate, 0–60 min), “DLPFEH”; in series [1] (mouse kidney homogenate, 0–60 min) it was “DLPFEH, LPFEH”; in series [1] (mouse liver homogenate, 0–60 min), “DLPFEH, LPFEH”; in series [1] (serum, 0–60 min), “DLPFEH, LPFEH, LPFE, LPF, SDLPF, DLPF”. The “metabolization in colon tissue” value in series [1] (mouse colon homogenate 0.6 mg/mL protein in KH buffer pH 7.4, 37 °C, 0–60 min) was “no metabolization was observed”. In addition, in the series with SH-SY5Y neuroblast cells (BV-2 treated 20 h, conditioned medium on SH-SY5Y 24 h), the “viability of SH-SY5Y cells with conditioned medium of treated BV-2 cells” value was “significant decreased viability”. For the same substance, the “toxicity of direct treatment of SH-SY5Y cells” value in the series on SH-SY5Y neuroblast cells (direct peptide treatment) is recorded as “no significant toxic effects”. In the series “Capillary depletion”, the Capillary fraction is given as 13.08%. In “Capillary depletion”, the Parenchymal fraction is on record as 86.92%.
